From patent publication US9018255B2, “Esters of (acyloxymethyl)acrylamide, a pharmaceutical composition containing them, and their use as inhibitors of the thioredoxin—thioredoxin reductase system” (Instytut Chemii Organicznej Polskiej Akademii Nauk, priority 2010, dated 2015)
pIC50: −log10 of the molar value. “Also recorded” adds a separate entry of the source. Where two headings read alike, the source gives them in different places.

Key:
glutathione reductase [1] = molecular target: T1, glutathione reductase (Homo sapiens (Human), UniProt P00390); assay: Glutathione reductase activity, DTNB chromogenic assay (Glutathione Reductase Assay Kit); type: biochemical; conditions: for pIC50: read-out: IC50 of glutathione reductase activity inhibition; for inhibition of glutathione reductase activity: even at a concentration of 100 μM
Protocol: The spatial structures of the active centres of glutathione reductase and the enzymes of the Trx-TrxR system show a high similarity. […] The reactions for determining the activity of recombinant human glutathione reductase made use of a chromogenic reaction with 5,5′-dithiobis-2-nitrobenzoic acid, like in the case of thioredoxin reductase. Activity was determined after 5 and 10 min incubation at room temperature.

[2] = system: RAJI (human Burkitt's lymphoma); assay: Cytostatic/cytotoxic activity, RAJI; type: cell-based; conditions: after 72 h of incubation
Protocol: (§1) The cytostatic/cytotoxic activity was evaluated using the following lines of tumour cells: EMT6 (murine breast cancer), PANC02 (murine pancreatic cancer), B78 (murine melanoma), C-26 (murine colon cancer), K562 (human chronic myelogenic leukaemia), T24 (human bladder cancer), RAJI (human Burkitt's lymphoma), Ramos (human Burkitt's lymphoma). The cultures were maintained in the following media: DMEM (EMT6, PANC02, B78), RPMI (C-26, Raji, Ramos), IMDM (K562), McCoy's (T24) with an addition of 10% bovine serum (Invitrogen) and antibiotics (Sigma).
(§2) To determine cytostatic/cytotoxic activity of the evaluated compounds, cell cultures were initiated in 96-well plates. After 24 h, inhibitors were added at set concentrations. The results were determined using colorimetric methods following 72 hours of incubation. To determine cytostatic/cytotoxic activity, crystal violet dyeing was used (reading at 595 nm) or MTT (Sigma; reading at 570 nm).

B78 (murine melanoma) = assay: Cytostatic/cytotoxic activity, B78; type: cell-based; conditions: B78, after 72 h of incubation
Protocol: as §1, §2

[3] = molecular target: rat recombinant thioredoxin reductase (Rattus norvegicus (Rat), UniProt O89049); assay: Thioredoxin reductase activity, DTNB chromogenic assay (Thioredoxin Reductase Assay Kit); type: biochemical; conditions: for pIC50: read-out: IC50 of thioredoxin reductase activity inhibition
Protocol: Reactions in which the activity of recombinant rat thioredoxin reductase was determined made use of a chromogenic reaction with 5,5′-dithiobis-2-nitrobenzoic acid.

[4] = system: Ramos (human Burkitt's lymphoma); assay: Cytostatic/cytotoxic activity, Ramos; type: cell-based; conditions: after 72 h of incubation
Protocol: as §1, §2

[5] = system: PANC02 (murine pancreatic cancer); assay: Cytostatic/cytotoxic activity, PANC02; type: cell-based; conditions: PANC02, after 72 h of incubation
Protocol: as §1, §2

T24 cells = assay: Cell cycle analysis by flow cytometry (propidium iodide); type: cell-based, human; conditions: T24, 72 hours of incubation
Excerpt: The cell cycle is composed of a series of events leading to cell division. In the cell cycle we differentiate the following phases: G1 (interval between divisions), S (duplication of genetic material) and G2/M (division or mitosis). An analysis of the cel cycle using a flow-through cytometer makes it possible to determine the percentage of cells in each of the phases. Furthermore, the percentage of cells in the so-called subG1 phase: those, whose genetic material has degraded as a result of apoptosis or necrosis.
The cells were stained with propidium iodide at […] and analysed with flow-through cytometry. The percentage of dividing cells duplicating their genetic material (S phase) is clearly lower after incubation with inhibitors of thioredoxin.

[6] = system: T24 (human bladder cancer); assay: Cytostatic/cytotoxic activity, T24; type: cell-based; conditions: T24, after 72 h of incubation
Protocol: as §1, §2

[7] = system: panel of human and murine lines of tumour cells; assay: Cytostatic/cytotoxic activity against panel of tumour cell lines (FIG. 1); type: cell-based; conditions: in words
Protocol: The cytostatic/cytotoxic activity against adherent cells, from solid tumours cells (EMT6, PAN02, CT26 and T24) was evaluated using the crystalline violet test, whereas against suspension-grown cells of the MTT line. b.d.=no data.
as §1, §2

[8] = system: EMT6 (murine breast cancer); assay: Cytostatic/cytotoxic activity, EMT6; type: cell-based; conditions: for LD50 of the evaluated compound: EMT6, after 72 h of incubation
Protocol: as §1
To determine cytostatic/cytotoxic activity of the evaluated compounds, cell cultures were initiated in 96-well plates. After 24 h, inhibitors were added at set concentrations. The results were determined using colorimetric methods following 72 hours of incubation.

[9] = molecular target: human recombinant thioredoxin (Homo sapiens (Human), UniProt P10599); assay: Thioredoxin activity, insulin reduction / DTNB assay with recombinant enzymes; type: biochemical; conditions: for thioredoxin activity inhibition in comparison to PX-12: in words; for pIC50: 37° C., 30 min, 0.25 μM thioredoxin, 0.325 μM thioredoxin reductase, read-out: IC50 of thioredoxin inhibition
Protocol: The method of determining thioredoxin activity is based on the reduction of insulin by thioredoxin. Thioredoxin is reconstituted is by thioredoxin reductase, with NADPH. The resulting free thiol —SH groups react with 5,5′-dithiobis-2-nitrobenzoic acid (DTNB). The termination of the reaction results in the formation of a […] colour. The intensity of colouration is determined spectrophotometrically at 412 nm and this corresponds to the number of reduced sulfahydryl groups. The reaction was performed at 37° C. over 30 min. in a buffer containing 50 mM Tris-HCl and 20 mM EDTA at a pH of 7.6. The substrate concentrations used were: 0.25 μM human recombinant thioredoxin and 0.325 μM rat recombinant thioredoxin reductase (IMCO Corporation Ltd AB, Sweden) and 316 μM of insulin, 0.8 μM NADPH, 8 mM DTNB (Sigma Aldrich).

[10] = system: K562 (human chronic myelogenic leukaemia); assay: Cytostatic/cytotoxic activity, K562; type: cell-based; conditions: K562, after 72 h of incubation
Protocol: as §1, §2

[11] = system: C-26 (murine colon cancer); assay: Cytostatic/cytotoxic activity, C-26; type: cell-based; conditions: C-26, after 72 h of incubation
Protocol: as §1, §2

glutathione reductase [12] = molecular target: T1, glutathione reductase; conditions: literature (Gromer et al. 1998); cited from earlier work
thioredoxin reductase = thioredoxin reductase (Homo sapiens (Human), UniProt Q16881); conditions: literature (Gromer et al. 1998); cited from earlier work
Sequence of thioredoxin reductase (Q16881 151-649): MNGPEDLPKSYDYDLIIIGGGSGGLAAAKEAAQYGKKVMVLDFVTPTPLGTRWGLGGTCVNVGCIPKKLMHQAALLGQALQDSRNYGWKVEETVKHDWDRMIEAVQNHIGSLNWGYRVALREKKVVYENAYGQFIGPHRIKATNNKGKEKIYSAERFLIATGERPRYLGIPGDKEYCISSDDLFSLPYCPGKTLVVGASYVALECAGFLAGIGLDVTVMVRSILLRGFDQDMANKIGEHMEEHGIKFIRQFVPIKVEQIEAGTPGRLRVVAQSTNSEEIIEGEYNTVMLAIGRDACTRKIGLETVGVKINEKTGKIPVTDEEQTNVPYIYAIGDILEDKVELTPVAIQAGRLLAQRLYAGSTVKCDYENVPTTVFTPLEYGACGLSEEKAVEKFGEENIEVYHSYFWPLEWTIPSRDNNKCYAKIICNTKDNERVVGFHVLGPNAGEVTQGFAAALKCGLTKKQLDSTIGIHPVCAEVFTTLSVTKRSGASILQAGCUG

T1 sequence (P00390 44-522): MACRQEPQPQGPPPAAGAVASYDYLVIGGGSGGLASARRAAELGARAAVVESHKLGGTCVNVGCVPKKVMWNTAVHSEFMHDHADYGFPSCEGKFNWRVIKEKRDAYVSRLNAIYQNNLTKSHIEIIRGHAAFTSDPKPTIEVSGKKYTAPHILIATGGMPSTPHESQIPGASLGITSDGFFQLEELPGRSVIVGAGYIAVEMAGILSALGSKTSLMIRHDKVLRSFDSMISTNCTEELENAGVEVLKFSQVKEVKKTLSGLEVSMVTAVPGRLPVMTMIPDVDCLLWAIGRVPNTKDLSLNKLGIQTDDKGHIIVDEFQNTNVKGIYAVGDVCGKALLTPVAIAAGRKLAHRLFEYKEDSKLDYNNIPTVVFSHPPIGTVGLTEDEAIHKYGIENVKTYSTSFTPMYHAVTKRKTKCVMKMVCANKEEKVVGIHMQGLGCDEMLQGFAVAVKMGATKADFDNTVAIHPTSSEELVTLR
Sequence of rat recombinant thioredoxin reductase (O89049 whole entry): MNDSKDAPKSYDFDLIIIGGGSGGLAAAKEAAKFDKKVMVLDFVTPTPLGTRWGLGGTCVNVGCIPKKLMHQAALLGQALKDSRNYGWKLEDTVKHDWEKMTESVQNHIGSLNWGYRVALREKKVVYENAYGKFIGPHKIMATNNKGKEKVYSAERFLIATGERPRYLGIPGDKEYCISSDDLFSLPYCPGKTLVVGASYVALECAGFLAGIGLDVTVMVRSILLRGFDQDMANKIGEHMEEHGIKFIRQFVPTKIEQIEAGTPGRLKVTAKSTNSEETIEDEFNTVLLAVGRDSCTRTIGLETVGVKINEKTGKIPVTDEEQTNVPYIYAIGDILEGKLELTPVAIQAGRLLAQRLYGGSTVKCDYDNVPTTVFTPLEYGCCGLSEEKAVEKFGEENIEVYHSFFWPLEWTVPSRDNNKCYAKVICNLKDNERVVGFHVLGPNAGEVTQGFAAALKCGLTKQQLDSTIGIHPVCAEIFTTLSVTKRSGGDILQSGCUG
Sequence of human recombinant thioredoxin (P10599 whole entry): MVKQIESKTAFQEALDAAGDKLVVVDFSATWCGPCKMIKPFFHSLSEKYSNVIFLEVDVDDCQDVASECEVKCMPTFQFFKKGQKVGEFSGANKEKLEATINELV

SMILES: C=C(COC(=O)c1c(C(F)(F)F)cccc1C(F)(F)F)C(=O)NC(CC(C)C)C(=O)NCC(=O)OCC (racemic) [Compound 3a, 2-((1-((2-ethoxy-2-oxoethyl)amino)-4-methyl-1-oxopentan-2-yl)carbamoyl)allyl 2,6-bis(trifluoromethyl)benzoate]
- pIC50 (glutathione reductase [1]; 5 min from reaction onset): < 4.00
- pIC50 (glutathione reductase [1]; 10 min from reaction onset): < 4.00
- inhibition of glutathione reductase activity (glutathione reductase [1]): None
- LD50 of the evaluated compound [2]: 4.6 µM
- LD50 of the evaluated compound (B78 (murine melanoma)): 4.3 µM
- pIC50 ([3]; 5 min from reaction onset): 4.43
- pIC50 ([3]; 15 min from reaction onset): < 4.40
- inhibition of thioredoxin reductase activity ([3]; in words): slightly inhibited
- thioredoxin reductase activity inhibition in comparison to PX-12 ([3]; in words): about three times less; also recorded: IC50 nearly three times higher
- LD50 of the evaluated compound [4]: 3.3 µM
- LD50 of the evaluated compound [5]: 3.2 µM
- percentage of dividing cells duplicating their genetic material (S phase) (T24 cells): clearly lower
- LD50 of the evaluated compound [6]: 5.1 µM
- cytostatic/cytotoxic activity [7]: comparable
- cytostatic/cytotoxic activity in comparison to PX-12 ([8]; EMT6): over two times more active
- LD50 of the evaluated compound [8]: 5.3 µM
- thioredoxin activity inhibition in comparison to PX-12 [9]: concentrations smaller than compound PX-12; also recorded: three times stronger
- LD50 of the evaluated compound [10]: 3.8 µM
- LD50 of the evaluated compound [11]: 3.2 µM

SMILES: C=C(COC(=O)c1c(Cl)cccc1Cl)C(=O)NC(CC(C)C)C(=O)NCC(=O)OCC (racemic) [Compound 3b, 2-((1-((2-ethoxy-2-oxoethyl)amino)-4-methyl-1-oxopentan-2-yl)carbamoyl)allyl 2,6-dichlorobenzoate]
- cytostatic/cytotoxic activity [7]: strong cytostatic/cytotoxic activity
- pIC50 [9]: 5.54
- thioredoxin activity inhibition in comparison to PX-12 [9]: concentrations smaller than compound PX-12
- thioredoxin IC50, times lower than for PX-12 ([9]; ratio to PX-12): about 5 times

SMILES: C=C(COC(=O)c1c(C(F)(F)F)cccc1C(F)(F)F)C(=O)NCc1ccccc1 [Compound 8a, 2-(benzylcarbamoyl)allyl 2,6-bis(trifluoromethyl)benzoate]
- pIC50 (glutathione reductase [1]; 5 min from reaction onset): < 4.00
- pIC50 (glutathione reductase [1]; 10 min from reaction onset): < 4.00
- pIC50 ([3]; 5 min from reaction onset): < 4.40
- pIC50 ([3]; 15 min from reaction onset): < 4.40
- cytostatic/cytotoxic activity [7]: strong cytostatic/cytotoxic activity

SMILES: C=C(COC(=O)c1c(Cl)cccc1Cl)C(=O)NCc1ccccc1 [Compound 8b, 2-(benzylcarbamoyl)allyl 2,6-dichlorobenzoate]
- pIC50 (glutathione reductase [1]; 5 min from reaction onset): < 4.00
- pIC50 (glutathione reductase [1]; 10 min from reaction onset): < 4.00
- inhibition of glutathione reductase activity (glutathione reductase [1]): None
- pIC50 ([3]; 5 min from reaction onset): < 4.40
- pIC50 ([3]; 15 min from reaction onset): < 4.40
- cytostatic/cytotoxic activity [7]: strong cytostatic/cytotoxic activity
- pIC50 [9]: 5.23
- selectivity as thioredoxin inhibitor in comparison to PX-12 ([9]; from Tables 1, 2 and 3): considerably more selective
- thioredoxin activity inhibition in comparison to PX-12 [9]: concentrations smaller than compound PX-12

SMILES: C=C(COC(=O)c1c(C(F)(F)F)cccc1C(F)(F)F)C(=O)N[C@H](CC(C)C)C(=O)NCC(=O)OCC [Compound D-3a, (R)-2-((1-((2-ethoxy-2-oxoethyl)amino)-4-methyl-1-oxopentan-2-yl)carbamoyl)allyl 2,6-bis(trifluoromethyl)benzoate]
- cytostatic/cytotoxic activity [7]: strong cytostatic/cytotoxic activity
- thioredoxin activity inhibition in comparison to PX-12 [9]: concentrations smaller than compound PX-12

SMILES: C=C(COC(=O)c1c(C(F)(F)F)cccc1C(F)(F)F)C(=O)N[C@@H](CC(C)C)C(=O)NCC(=O)OCC [Compound L-3a, (S)-2-((1-((2-ethoxy-2-oxoethyl)amino)-4-methyl-1-oxopentan-2-yl)carbamoilo)allyl 2,6-bis(trifluoromethyl)benzoate]
- cytostatic/cytotoxic activity [7]: strong cytostatic/cytotoxic activity
- thioredoxin activity inhibition in comparison to PX-12 [9]: concentrations smaller than compound PX-12

SMILES: CCC(C)SSc1ncc[nH]1 (stereo not drawn) [PX-12, 1-methylpropyl-2-imidazole disulphide, reference compound]
- pIC50 (glutathione reductase [1]; 5 min from reaction onset): 4.70
- pIC50 (glutathione reductase [1]; 10 min from reaction onset): 4.54
- LD50 of the evaluated compound [2]: 5.9 µM
- LD50 of the evaluated compound (B78 (murine melanoma)): 5.3 µM
- LD50 of the evaluated compound [4]: 3.7 µM
- LD50 of the evaluated compound [5]: 3.8 µM
- percentage of dividing cells duplicating their genetic material (S phase) (T24 cells): clearly lower
- LD50 of the evaluated compound [6]: 4.5 µM
- LD50 of the evaluated compound [8]: 12.7 µM
- LD50 of the evaluated compound [10]: 4.9 µM
- LD50 of the evaluated compound [11]: 5.4 µM

SMILES: CC[P](CC)(CC)=[Au][S]C1OC(OC(C)=O)C(OC(C)=O)C(OC(C)=O)C1OC(C)=O (stereo not drawn) [auranofin]
- concentrations inhibiting glutathione reductase (glutathione reductase [12]): micromolar levels
- concentrations inhibiting thioredoxin reductase (thioredoxin reductase): nanomolar concentrations
